This passage reports TGI and GI50 results from PubChem BioAssay (NCI).

Among the test systems are 786-0 renal; ACHN renal; PC-3 prostate; MCF7 breast; UO-31 renal; SK-OV-3 ovarian; HOP-62 NSCLC; EKVX NSCLC; OVCAR-5 ovarian; OVCAR-4 ovarian; HL-60(TB) leukemia.
Holding throughout (assay): growth of human tumour cells (NCI), 48 h

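Assay format: 96-well plates, 48-hour exposure. GI50: concentration for 50% inhibition of growth. TGI: concentration producing complete growth inhibition.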 Where only a bound is given, the exact number is not on record here.

`CC(C)N=C(NC#N)NS(=O)(=O)c1cnccc1NC1CCCCCCC1`: the TGI with 786-0 renal, with ACHN renal, with PC-3 prostate, in the assay on MCF7 breast, with UO-31 renal and in the assay with SK-OV-3 ovarian was greater than 100 µM each time. Further, the TGI in the assay on HOP-62 NSCLC, with EKVX NSCLC, with OVCAR-5 ovarian and in the assay with OVCAR-4 ovarian was greater than 100 µM in each case.

Consider `COc1ccc(/C=C2\NC(=S)N(CN3CCOCC3)C2=O)cc1`, for which the TGI in the assay on 786-0 renal, in the assay with ACHN renal, with PC-3 prostate, in the assay on MCF7 breast, in the assay on UO-31 renal and in the assay on SK-OV-3 ovarian was greater than 100 µM in each case. Moreover, the TGI in the assay on HOP-62 NSCLC, in the assay with EKVX NSCLC, with OVCAR-5 ovarian and in the assay with OVCAR-4 ovarian was greater than 100 µM throughout.

On to `COc1ccc([C@H]2C=C(c3cc(F)c(Cl)cc3Cl)N=c3s/c(=C\c4ccc(-c5ccc(Cl)cc5Cl)o4)c(=O)n32)cc1`, for which the TGI was greater than 100 µM with 786-0 renal; greater than 100 µM in the assay on ACHN renal; greater than 100 µM with PC-3 prostate; greater than 100 µM with MCF7 breast; greater than 100 µM in the assay with UO-31 renal; 65.2 µM in the assay on SK-OV-3 ovarian. The results for the TGI in the assay with HOP-62 NSCLC, with OVCAR-5 ovarian and in the assay with OVCAR-4 ovarian were 45.3 µM, greater than 100 µM and greater than 100 µM, respectively.

For the compound `Cc1cc(NS(=O)(=O)c2ccc(N=Nc3c(Nc4ccccc4)nn(-c4ccc(S(=O)(=O)Nc5ccncn5)cc4)c3C)cc2)no1`, the TGI with 786-0 renal, in the assay with ACHN renal, with PC-3 prostate, in the assay with MCF7 breast, in the assay on UO-31 renal and in the assay with SK-OV-3 ovarian was greater than 100 µM in each case. Besides, the TGI with HOP-62 NSCLC, in the assay with EKVX NSCLC, in the assay with OVCAR-5 ovarian and in the assay on OVCAR-4 ovarian was greater than 100 µM in each case.

Regarding `O=[N+]([O-])c1ccc(N/N=C\c2ccc(O)cc2O)nc1`, the GI50 was 599 nM with ACHN renal; 5.73 µM in the assay with PC-3 prostate; 3.4 µM in the assay with MCF7 breast; 2180 nM in the assay with SK-OV-3 ovarian; 4.34 µM in the assay on HOP-62 NSCLC; 3.49 µM in the assay on EKVX NSCLC. In addition, the GI50 in the assay on OVCAR-5 ovarian is 5.68 µM; with OVCAR-4 ovarian, 1110 nM. Besides, the TGI is 21.3 µM in the assay on ACHN renal; greater than 100 µM in the assay on PC-3 prostate; greater than 100 µM with MCF7 breast; greater than 100 µM in the assay on SK-OV-3 ovarian; 45 µM in the assay with HOP-62 NSCLC; greater than 100 µM in the assay on EKVX NSCLC. Moreover, the TGI with OVCAR-5 ovarian and with OVCAR-4 ovarian was greater than 100 µM in each case.

Regarding `COC(=O)c1cc(OCc2cc(OCc3ccc(Br)cc3)cc(OCc3ccc(Br)cc3)c2)cc(OCc2cc(OCc3ccc(Br)cc3)cc(OCc3ccc(Br)cc3)c2)c1`, the TGI in the assay on 786-0 renal, in the assay on ACHN renal, with PC-3 prostate, in the assay on MCF7 breast, in the assay on UO-31 renal and in the assay on SK-OV-3 ovarian was greater than 100 µM throughout. In addition, the TGI in the assay on HOP-62 NSCLC, in the assay on EKVX NSCLC, in the assay on OVCAR-5 ovarian and in the assay with OVCAR-4 ovarian was greater than 100 µM throughout.

For the compound `CSc1nnc2n1-c1ccccc1SCC2`, the TGI with 786-0 renal, in the assay on ACHN renal, in the assay on UO-31 renal, in the assay on SK-OV-3 ovarian, in the assay with HL-60(TB) leukemia and in the assay with HOP-62 NSCLC was greater than 100 µM each time. Moreover, the TGI in the assay with EKVX NSCLC and in the assay on OVCAR-4 ovarian was greater than 100 µM each time.

As for `COc1ccc2oc(=O)c(-c3nc4ccccc4s3)cc2c1`, the TGI was 20.5 µM with 786-0 renal; 12.7 µM with ACHN renal; greater than 100 µM in the assay with PC-3 prostate; greater than 41.6 µM with UO-31 renal; 36.5 µM in the assay on SK-OV-3 ovarian; greater than 100 µM with HL-60(TB) leukemia. Moreover, the TGI was greater than 48.1 µM in the assay on HOP-62 NSCLC, greater than 65 µM in the assay on EKVX NSCLC, greater than 100 µM with OVCAR-5 ovarian and 53.6 µM with OVCAR-4 ovarian.

For the compound `COc1ccccc1N1C(=O)/C(=C\c2ccccc2)SC1c1cc(OC)c(OC)c(OC)c1` (configuration not stated), the TGI in the assay on 786-0 renal was greater than 100 µM; in the assay with ACHN renal, greater than 100 µM; in the assay on PC-3 prostate, 68.9 µM; in the assay with MCF7 breast, greater than 100 µM; in the assay on UO-31 renal it was greater than 100 µM; in the assay with SK-OV-3 ovarian, greater than 100 µM. Moreover, the TGI in the assay on HOP-62 NSCLC, in the assay on EKVX NSCLC, in the assay with OVCAR-5 ovarian and in the assay with OVCAR-4 ovarian was greater than 100 µM each time.

Turning to `O=c1ccc2c(Cl)sc(Cl)c2[nH]1`, the TGI with 786-0 renal, in the assay with ACHN renal, with PC-3 prostate, in the assay on MCF7 breast, with UO-31 renal and in the assay on SK-OV-3 ovarian was greater than 100 µM throughout. Also, the TGI in the assay on HOP-62 NSCLC, in the assay on EKVX NSCLC, in the assay on OVCAR-5 ovarian and with OVCAR-4 ovarian was greater than 100 µM each time.

`C[C@H](OC(=O)/C=C/c1ccc(O)c(O)c1)[C@H](C)OC(=O)/C=C/c1ccc(O)c(O)c1`: the TGI is 20 µM with 786-0 renal; 30.5 µM in the assay with ACHN renal; greater than 100 µM in the assay with PC-3 prostate; 70.7 µM with MCF7 breast; 21.9 µM in the assay with UO-31 renal; 32.3 µM in the assay on SK-OV-3 ovarian. Besides, the TGI in the assay on HOP-62 NSCLC was 26.6 µM; with EKVX NSCLC, 33 µM; in the assay on OVCAR-5 ovarian, 33.1 µM; in the assay with OVCAR-4 ovarian it was greater than 100 µM.

Consider `COC(=O)C1=C(C(=O)OC)C2CCC1CC2=O` (configuration not stated), for which the TGI with 786-0 renal, with ACHN renal, in the assay on PC-3 prostate, in the assay on MCF7 breast, in the assay on UO-31 renal and with SK-OV-3 ovarian was greater than 100 µM in each case. The TGI with HOP-62 NSCLC, with EKVX NSCLC, in the assay with OVCAR-5 ovarian and with OVCAR-4 ovarian was greater than 100 µM throughout.

For the compound `COC1=C2C[C@](OC)(C#CC=CC#CC2O)CC1(C)C` (some centres not stated), the TGI is greater than 100 µM in the assay on 786-0 renal; greater than 100 µM in the assay on ACHN renal; greater than 100 µM in the assay with PC-3 prostate; greater than 100 µM in the assay with MCF7 breast; 80.3 µM in the assay with UO-31 renal; greater than 100 µM in the assay on HL-60(TB) leukemia. In addition, the TGI with HOP-62 NSCLC, with EKVX NSCLC and with OVCAR-5 ovarian was greater than 100 µM each time.
